Values after ≈ are worked out from the molar mass of the structure shown.
Tests used:
[1] = tested on: H1975 cell xenograft; assay: H1975 cell xenograft tumor assay; assay type: in vivo, BALB/c nude mice; settings: for tumor recurrence after administration was stopped for 1 month (FIG. 2): H1975 xenograft
Method: Purpose of experiment: H1975 transplanted BALB/c nude mice were orally administered (PO) with a substance to be tested for 14 consecutive days. The body weight and tumor size of nude mice were observed and recorded.
H1975 cells were obtained from Shanghai Institute of Materia Medica. […] Cells were fluid-changed and passaged for one time every 2-3 days and expanded. When the desired amount of cells was achieved, transplantation of cells was performed.
(§1) 40 male BALB/c nude mice, aged 4-5 weeks and weighing 17-23 g, were purchased from Shanghai Bikai, placed in an animal room environment for 2-3 days, and then seeded with cells. Cell suspension was subcutaneously injected at forelimb of the nude mouse rich in capillaries, and each mouse was injected with 0.1 mL of cell suspension.
(§2) Appropriate amount of a substance to be tested was weighed, suspended in 14 mL of DMSO-PEG400 saline solution (DMSO:PEG400:saline=1:30:69) respectively, formulated according to the following table, suspended or dissolved by ultrasonic wave, filled into vials and sealed, and reserved in a 4° C. refrigerator for further use.
(§3) The length and width of a tumor and body weight of a mouse were recorded at least twice a week. The tumor size is calculated as V=0.5*length*width*width.

[2] = tested on: A431 cell xenograft (EGFR wild-type); assay: A431 cell xenograft tumor assay; assay type: in vivo, BALB/c nude mice; settings: 25 mg/kg, oral, 14 days
Method: Purpose of experiment: A431 xenograft tumor BALB/c nude mice were orally administered (PO) with a substance to be tested for 14 consecutive days. The body weight and tumor size of nude mice were observed and recorded.
Cells were fluid-changed and passaged for one time every 2-3 days and expanded. When the desired amount of cells was achieved, transplantation of cells was performed.
as §1
as §2, with “sealed” for “sealed,”
as §3

[3] = tested on: H1975 cells (EGFR L858R/T790M); assay: Inhibitory activity on cell proliferation, H1975; assay type: cell-based; settings: Homo sapiens, NCI-H1975; H1975, 72 hours; read-out: Inhibitory activity on proliferation of cells (IC50, μM) H1975
[4] = Pathological analysis of tumor-bearing mice after 14 consecutive days of administration; assay type: in vivo
[5] = tested on: A431 cells (EGFR wild type); assay: Inhibitory activity on cell proliferation, A431; assay type: cell-based; settings: Homo sapiens, A-431; A431, 72 hours; read-out: Inhibitory activity on proliferation of cells (IC50, μM) A431
[6] = target: T1, EGFR-L858R/T790M (Homo sapiens, UniProt P00533, L858R/T790M); assay: Kinase activity test (FRET), EGFR T790M/L858R; assay type: biochemical; settings: EGFR T790M/L858R; read-out: Inhibitory activity of EGFR on kinase (IC50, nM) T790M/L858R
T1 construct: purchased Invitrogen PV4879
T1 sequence (P00533 25-1210 T790M/L858R): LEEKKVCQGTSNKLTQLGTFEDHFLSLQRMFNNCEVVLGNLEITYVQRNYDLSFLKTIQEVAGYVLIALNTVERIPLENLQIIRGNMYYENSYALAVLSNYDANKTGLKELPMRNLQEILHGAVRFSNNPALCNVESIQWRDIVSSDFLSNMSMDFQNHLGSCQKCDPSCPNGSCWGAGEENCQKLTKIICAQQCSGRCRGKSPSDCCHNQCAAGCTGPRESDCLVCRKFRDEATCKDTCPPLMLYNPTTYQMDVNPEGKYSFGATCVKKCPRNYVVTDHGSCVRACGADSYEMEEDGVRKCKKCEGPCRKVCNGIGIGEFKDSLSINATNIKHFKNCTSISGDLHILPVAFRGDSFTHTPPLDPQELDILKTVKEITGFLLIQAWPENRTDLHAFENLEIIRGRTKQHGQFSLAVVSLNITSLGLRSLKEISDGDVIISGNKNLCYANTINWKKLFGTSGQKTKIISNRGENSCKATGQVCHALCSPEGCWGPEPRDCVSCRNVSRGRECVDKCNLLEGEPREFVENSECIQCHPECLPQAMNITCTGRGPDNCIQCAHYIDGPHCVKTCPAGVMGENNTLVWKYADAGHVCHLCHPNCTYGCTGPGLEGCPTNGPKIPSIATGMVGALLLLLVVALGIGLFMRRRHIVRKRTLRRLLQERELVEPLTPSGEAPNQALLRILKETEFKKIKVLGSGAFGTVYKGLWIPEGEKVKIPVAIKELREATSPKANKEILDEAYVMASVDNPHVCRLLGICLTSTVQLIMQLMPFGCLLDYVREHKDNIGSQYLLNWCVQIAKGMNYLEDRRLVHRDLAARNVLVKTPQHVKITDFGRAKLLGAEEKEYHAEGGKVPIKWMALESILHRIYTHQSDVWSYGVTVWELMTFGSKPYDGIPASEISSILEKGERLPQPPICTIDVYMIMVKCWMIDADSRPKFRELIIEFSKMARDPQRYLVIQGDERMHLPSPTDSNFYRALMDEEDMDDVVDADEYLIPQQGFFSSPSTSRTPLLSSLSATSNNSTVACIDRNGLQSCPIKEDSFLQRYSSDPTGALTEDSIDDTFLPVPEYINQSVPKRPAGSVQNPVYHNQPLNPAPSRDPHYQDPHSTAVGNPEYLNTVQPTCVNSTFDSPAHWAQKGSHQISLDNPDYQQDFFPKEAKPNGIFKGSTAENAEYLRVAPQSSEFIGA
In short: (§4)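 FRET assay with coumarin/fluorescein-labelled poly(Glu, Tyr)4:1 peptide and ATP, compounds at 5.1×10^−11 to 1.0×10^−6 mol/L final. Kinase reaction 1.5 h at room temperature, then 1 h development cleaving unphosphorylated peptide.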

[7] = Determination of solubility in water (PBS 20 mM, pH 6.8); assay type: physicochemical; settings: PBS buffer, aqueous buffer, thermodynamic from solid; pH 6.8, 20 mM PBS; read-out: Solubility (pH 6.8, g/mL)
In short: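 Compound suspension filtered (0.22 μm PVDF), diluted in 50% methanol/50% PBS, absorbance read by UV spectrophotometry. Solubility calculated from a standard curve of 0.01–0.05 mg/mL methanol-derived solutions (r > 0.998).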

[8] = target: T2, Wild type EGFR (Homo sapiens, UniProt P00533); assay: Kinase activity test (FRET), wild type EGFR; assay type: biochemical; settings: wild type EGFR; read-out: Inhibitory activity of EGFR on kinase (IC50, nM) WT
T2 construct: purchased Invitrogen PV3872
T2 sequence (P00533 25-1210): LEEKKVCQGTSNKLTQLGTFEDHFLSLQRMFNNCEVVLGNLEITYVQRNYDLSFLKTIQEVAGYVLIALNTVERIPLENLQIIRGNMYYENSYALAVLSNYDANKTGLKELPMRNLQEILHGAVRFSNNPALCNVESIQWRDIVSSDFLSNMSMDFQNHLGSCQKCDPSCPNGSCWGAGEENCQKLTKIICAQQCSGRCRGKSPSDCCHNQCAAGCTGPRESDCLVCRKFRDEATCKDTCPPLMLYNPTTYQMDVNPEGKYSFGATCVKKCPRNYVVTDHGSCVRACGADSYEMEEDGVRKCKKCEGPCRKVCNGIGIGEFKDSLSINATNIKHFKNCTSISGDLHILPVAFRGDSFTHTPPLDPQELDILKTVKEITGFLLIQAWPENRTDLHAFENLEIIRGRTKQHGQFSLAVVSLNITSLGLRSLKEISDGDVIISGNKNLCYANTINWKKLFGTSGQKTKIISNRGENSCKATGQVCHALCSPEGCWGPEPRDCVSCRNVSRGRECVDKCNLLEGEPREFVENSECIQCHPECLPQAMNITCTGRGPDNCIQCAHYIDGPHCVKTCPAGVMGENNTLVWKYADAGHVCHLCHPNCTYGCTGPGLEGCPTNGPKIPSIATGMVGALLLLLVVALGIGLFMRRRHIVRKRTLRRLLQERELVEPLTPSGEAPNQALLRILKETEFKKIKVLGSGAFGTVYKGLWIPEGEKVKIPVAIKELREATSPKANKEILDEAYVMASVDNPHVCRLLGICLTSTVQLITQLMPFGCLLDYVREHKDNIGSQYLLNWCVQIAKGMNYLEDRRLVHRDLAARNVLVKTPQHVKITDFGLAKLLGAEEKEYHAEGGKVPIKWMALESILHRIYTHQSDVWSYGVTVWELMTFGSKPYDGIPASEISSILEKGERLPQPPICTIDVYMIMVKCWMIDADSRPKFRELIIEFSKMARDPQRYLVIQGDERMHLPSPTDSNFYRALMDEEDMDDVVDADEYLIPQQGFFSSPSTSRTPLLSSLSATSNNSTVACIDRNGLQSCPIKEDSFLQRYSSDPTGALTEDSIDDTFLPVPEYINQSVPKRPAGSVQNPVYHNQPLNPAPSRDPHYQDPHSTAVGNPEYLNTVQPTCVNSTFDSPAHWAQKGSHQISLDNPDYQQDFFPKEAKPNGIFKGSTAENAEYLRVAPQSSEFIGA
In short: as §4

Structure (SMILES) | effect on tumor size in H1975 xenograft (FIG. 2) ([1]; 25 mg/kg) | tumor recurrence after administration was stopped for 1 month (FIG. 2) ([1]; 25 mg/kg) | tumor size in EGFR wild-type A431 cell xenograft model (FIG. 3) [2] | IC50 [3] [µM] | pathology, brain tissue (FIG. 5E) [4] | pathology, heart tissue (FIG. 5G) [4] | pathology, intestine tissue (FIG. 5A) [4] | pathology, kidney tissue (FIG. 5F) [4] | pathology, liver tissue (FIG. 5C) [4] | pathology, lung tissue (FIG. 5B) [4] | pathology, tumor tissue (FIG. 5D) [4] | IC50 [5] [µM] | IC50 [6] [nM] | solubility [7] [µg/mL] | efficacy in H1975 xenograft (FIG. 2), 25 mg/kg versus AZD9291 25 mg/kg ([1]; 25 mg/kg) | efficacy in H1975 xenograft (FIG. 2), 10 mg/kg versus CO-1686 50 mg/kg ([1]; Compound 14 10 mg/kg, CO-1686 50 mg/kg) | efficacy in H1975 cell xenograft model (FIG. 1) ([1]; orally administered for 14 days, versus CO-1686) | selectivity on wild-type EGFR in A431 xenograft (FIG. 3) ([2]; versus afatinib) | IC50 [8] [nM]
C=CC(=O)Nc1cc(Nc2nccc(-c3cn(C)c4ccccc34)n2)c(OC)cc1N(C)CCN(C)C [AZD9291, reference compound] | effectively reduce the size of a tumor | […] | the size of the tumor did not substantially change | […] | normal tissue structure, no pathological change | 1) moderate expansion of myocardial fiber gap in the tissue, as indicated by the black arrow, 2) vacuoles formed in the cytoplasm of the myocardial fibers | inflammatory cell focal infiltration seen in tissue | 1) extensive kidney tubular lumen expansion in tissue, as shown by the black arrow, 2) part of glomerular wall thickening, as shown by the yellow arrow, and 3) visible transparent tube | 1) more severe liver injury, extensive hepatic sinusoids dilatation, as indicated by the black arrow, and 2) visible necrosis in liver tissue | pulmonary congestion, interstitial edema | moderate necrosis of cells in the entire tissues | […] |  |  |  |  |  |  | 
C=CC(=O)Nc1cccc(-n2c(=O)c(-c3ccccc3)nc3cnc(Nc4ccc(N5CCN(C)CC5)cc4OC)nc32)c1 [Compound 14, N-(3-(2-((2-methoxy-4-(4-methyl-1-piperazinyl)phenyl)amino)-7-oxo-6-phenyl-8(7H)-pteridinyl)phenyl)acrylamide] | effectively reduce the size of a tumor | the tumor did not recur | the size of the tumor did not substantially change | 0.014 | normal tissue structure, no pathological change | moderate expansion of myocardial fiber gap in the tissue | mucosal inflammatory cell focal infiltration | 1) a part of glomerular wall in the tissue thickening, as shown by the black arrow, and 2) no significant abnormality | 1) the extensive hepatic sinusoids dilatation in the entire tissue, as indicated by the black arrow, and 2) visible mild fatty degeneration in liver tissue, with small droplets of lipid | normal tissue structure, no pathological change | moderate necrosis of cells in the entire tissues | 4.18 | 1 | 9.7 (≈ 16.5 µM) | comparable efficacy to AZD9291 | better efficacy over CO-1686 | superior efficacy over CO-1686 | significantly better than afatinib | 10.5

From patent publication US11306095B2 (EAST CHINA UNIVERSITY OF SCIENCE AND TECHNOLOGY, priority 2015, dated 2022)
